These are literature values, as cited in patent publication US12171220B2, “High osmolarity antimicrobial composition containing one or more organic solvents” (Next Science IP Holdings Pty Ltd, priority 2013, dated 2024).

Molecules are shown by their SMILES.

The conditions of one series: alcohols, Table 2; room temperature.
On to `OCC(Cl)CCl` (centres unmarked) [2,3-dichloropropanol], for which the “~δp (MPa^1/2)” value was approximately 9.2 MPa^1/2. For the compound `OC1C=CCC1` (centres unmarked) [2-cyclopentenyl alcohol], the “~δp (MPa^1/2)” value is given as approximately 7.6 MPa^1/2. `CCC(CC)CO` [2-ethyl-1-butanol]: the “~δp (MPa^1/2)” value is approximately 4.3 MPa^1/2. As for `CCCCC(CC)CO` (centres unmarked) [2-ethyl-hexanol], the “~δp (MPa^1/2)” value is listed as approximately 3.3 MPa^1/2.

As for `OCc1ccc(Cl)cc1` [4-chlorobenzyl alcohol], the “~δp (MPa^1/2)” value is given as approximately 7.5 MPa^1/2. In the case of `CCCCO` [Example 1-butanol, 1-butanol], the “~δp (MPa^1/2)” value was approximately 5.7 MPa^1/2. Consider `CCCCCCCCCCO` [Example 1-decanol, 1-decanol], for which the “~δp (MPa^1/2)” value is listed as approximately 10.0 MPa^1/2. Turning to `CCCCCO` [Example 1-pentanol, 1-pentanol], the “~δp (MPa^1/2)” value is on record as approximately 4.5 MPa^1/2. Regarding `CCCO` [Example 1-propanol, 1-propanol], the “~δp (MPa^1/2)” value is recorded as approximately 6.8 MPa^1/2.

In the case of `CCCCCCCCC(C)O` (centres unmarked) [Example 2-decanol, 2-decanol], the “~δp (MPa^1/2)” value is given as approximately 10.0 MPa^1/2. `CCCC(C)O` (centres unmarked) [Example 2-pentanol, 2-pentanol]: the “~δp (MPa^1/2)” value was approximately 6.4 MPa^1/2. Regarding `CC(C)O` [Example 2-propanol, 2-propanol], the “~δp (MPa^1/2)” value is approximately 6.1 MPa^1/2. For the compound `C=CCO` [Example 2-propenol, 2-propenol], the “~δp (MPa^1/2)” value was approximately 10.8 MPa^1/2. As for `OC1CCCCC1` [cyclohexanol], the “~δp (MPa^1/2)” value is on record as approximately 4.1 MPa^1/2. Turning to `CCO` [ethanol], the “~δp (MPa^1/2)” value was approximately 8.8 MPa^1/2. For the compound `CC(C)CCCCCO` [isooctyl alcohol], the “~δp (MPa^1/2)” value is listed as approximately 7.3 MPa^1/2. For the compound `CO` [methanol], the “~δp (MPa^1/2)” value is approximately 12.3 MPa^1/2. On to `CCCCCCCCO` [octanol], for which the “~δp (MPa^1/2)” value is on record as approximately 3.3 MPa^1/2. Take `CCCCCCCC/C=C\CCCCCCCCO` [oleyl alcohol]: the “~δp (MPa^1/2)” value is listed as approximately 2.6 MPa^1/2. Take `CC(C)(C)O` [t-butyl alcohol]: the “~δp (MPa^1/2)” value is recorded as approximately 5.1 MPa^1/2.

Staying with this series, now noted: glycol ethers, Table 1; room temperature.
As for `CCCCOCCOCCO` [diethylene glycol mono-n-butyl ether], the “~δp (MPa^1/2)” value is reported as approximately 7.0 MPa^1/2.

Regarding `CCOCCOCCO` [diethylene glycol monoethyl ether], the “~δp (MPa^1/2)” value is approximately 9.2 MPa^1/2. Consider `COCCOCCO` [diethylene glycol monomethyl ether], for which the “~δp (MPa^1/2)” value is listed as approximately 7.8 MPa^1/2. On to `OCCOCc1ccccc1` [ethylene glycol monobenzyl ether], for which the “~δp (MPa^1/2)” value was approximately 5.9 MPa^1/2. `CCCCOCCO` [ethylene glycol monobutyl ether]: the “~δp (MPa^1/2)” value is approximately 5.1 MPa^1/2. For the compound `CCOCCO` [ethylene glycol monoethyl ether], the “~δp (MPa^1/2)” value is recorded as approximately 9.2 MPa^1/2. On to `CC(C)OCCO` [ethylene glycol monoisopropyl ether], for which the “~δp (MPa^1/2)” value is approximately 8.2 MPa^1/2.

On to `COCCO` [ethylene glycol monomethyl ether], for which the “~δp (MPa^1/2)” value is approximately 9.2 MPa^1/2.

For `OCCOc1ccccc1` [ethylene glycol monophenyl ether], the “~δp (MPa^1/2)” value was approximately 5.7 MPa^1/2. Regarding `CCCOCCO` [ethylene glycol monopropyl ether], the “~δp (MPa^1/2)” value is recorded as approximately 8.2 MPa^1/2. For the compound `CCCCOCC(C)O` (centres unmarked) [propylene glycol monobutyl ether], the “~δp (MPa^1/2)” value was approximately 4.5 MPa^1/2.

Take `CCOCC(C)O` (centres unmarked) [propylene glycol monoethyl ether]: the “~δp (MPa^1/2)” value is approximately 6.5 MPa^1/2.

In the case of `CC(C)COCC(C)O` (centres unmarked) [propylene glycol monoisobutyl ether], the “~δp (MPa^1/2)” value is approximately 4.7 MPa^1/2. Regarding `CC(O)COC(C)C` (centres unmarked) [propylene glycol monoisopropyl ether], the “~δp (MPa^1/2)” value was approximately 6.1 MPa^1/2. Take `COCC(C)O` (centres unmarked) [propylene glycol monomethyl ether]: the “~δp (MPa^1/2)” value is approximately 6.3 MPa^1/2. Turning to `CCCOCC(C)O` (centres unmarked) [propylene glycol monopropyl ether], the “~δp (MPa^1/2)” value is reported as approximately 5.6 MPa^1/2.

In the case of `COCCOCCOCCO` [triethylene glycol monomethyl ether], the “~δp (MPa^1/2)” value is listed as approximately 7.6 MPa^1/2. As to `CCCCCCCC/C=C\CCCCCCCCOCCOCCOCCO` [triethylene glycol monooleyl ether], the “~δp (MPa^1/2)” value is on record as approximately 3.1 MPa^1/2.

Still in this series, the particulars now being: solvents added in Examples 65-80, text.
For the compound `Clc1ccccc1` [chlorobenzene], the δp is recorded as 4.3. On to `CCOC(C)=O` [ethyl acetate], for which the δp was 5.3.

The same series, now with this note: water.
For `O` [water], the δp result is given as “≈ 16.0 MPa^1/2”.
